Literature values in patent publication US12465608B2, “Osimertinib for use in the treatment of non-small cell lung cancer” (AstraZeneca AB, priority 2019, dated 2025).

What was measured:
[1] = tested on: patients with advanced mutation-positive EGFR (Ex19del or L858R) NSCLC; details: for median progression free survival (PFS): first-line therapy, FLAURA
[2] = tested on: patients with advanced EGFR mutation-positive NSCLC who were never- or light-former smokers; details: erlotinib combined with carboplatin plus paclitaxel; subgroup of patients with EGFR mutations
[3] = tested on: patients with EGFR mutation-positive NSCLC

SMILES | median progression free survival (PFS) [1] [months] | side effects, combination vs erlotinib monotherapy [2] | PFS hazard ratio (HR) ([3]; dacomitinib vs gefitinib, 95% CI 0.47-0.74, p<0.0001) | median PFS ([3]; first line treatment, EGFR mutation-positive NSCLC) [months] | events of CNS progression, patients ([1]; irrespective of known or treated CNS metastases at trial entry) [%] | PFS hazard ratio (HR) ([1]; osimertinib vs erlotinib or gefitinib, 95% CI 0.37, 0.57, p<0.0001) | median CNS PFS ([1]; patients with CNS metastases on a baseline brain scan) | reduction in the risk of CNS progression ([1]; patients with CNS metastases on a baseline brain scan, vs standard EGFR-TKIs) [%] | CNS PFS HR ([1]; patients with CNS metastases on a baseline brain scan, vs standard EGFR-TKIs, 95% CI 0.26-0.86, p=0.014)
C#Cc1cccc(Nc2ncnc3cc(OCCOC)c(OCCOC)cc23)c1 [erlotinib] | 10.2 | more side effects |  |  |  |  |  |  | 
COc1cc2ncnc(Nc3ccc(F)c(Cl)c3)c2cc1NC(=O)/C=C/CN1CCCCC1 [dacomitinib, (2E)-N-{4-[(3-chloro-4-fluorophenyl)amino]-7-methoxyquinazolin-6-yl}-4-(piperidin-1-yl)but-2-enamide] |  |  | 0.59 | 14.7 |  |  |  |  | 
C=CC(=O)Nc1cc(Nc2nccc(-c3cn(C)c4ccccc34)n2)c(OC)cc1N(C)CCN(C)C [osimertinib, N-(2-{2-dimethylaminoethyl-methylamino}-4-methoxy-5-{[4-(1-methylindol-3-yl)pyrimidin-2-yl]amino}phenyl) prop-2-enamide] | 18.9 |  |  |  | 6 | 0.46 | not reached | 52 | 0.48
